Data as given in patent US20080248076A1, “ANTIMICROBIAL RUBBER BANDS” (priority 2007, published 2008).
“And” between values parts separate entries of the source, which are not always exact repeats. Identical values can stand only once.

Experiments:
[1] = test system: all of the organisms tested (Escherichia coli, Staphylococcus aureus, Pseudomonas aeruginosa, Pasteurella multocida); test: Growth Inhibitor Test, overall conclusion; assay type: cell-based; conditions: versus sodium hypochlorite at 100 ppm disinfection concentration
From the text: (§1) Test Scope: The Growth Inhibitor Test was used to determine the toxicity of a rubber band containing zinc pyrithione. Any presence of toxic residues in the test material (rubber band) will inhibit bacterial growth in the agar medium. A zone of inhibition or no growth of test organism around the test material indicates the presence of toxic residues in the test material. The intensity of inhibition is indicative of the concentration of the toxic agent.
(§2) Test Objective: Four (4) test organisms were used in this assay to determine toxicity. Each organism was suspended in specific agar medium, incubated at 35° C. for 48 hours, and then read to determine growth or no growth of test organism. Each test organism was grown individually in a Petri plate and the test material was planted unto the agar plate to determine the outcome. If no toxic residues were present in the test material, then the test bacteria grew around and under the test medium producing a “lawn effect.” If inhibitory substances were present in the test material, it would diffuse into the agar medium and prevent the growth of bacterial in the medium. The larger the zone of inhibition, the higher the concentration of toxic substances.
Test Organisms: The following four (4) organisms were employed: Escherichia coli, Staphylococcus aureus, Pseudomonas aeruginosa, and Pasteurella multocida. […]

[2] = test system: Escherichia coli; test: Growth Inhibitor Test (zone of inhibition / kill zone on agar); assay type: cell-based; conditions: E. coli, Standard Methods Agar, 48 hours at 32.0° C; heading says test organism died, assay invalid; Sodium Hypochlorite @ 100 ppm on paper disc
From the text: as §1, §2
(§3) Test Organisms: The following four (4) organisms were employed: Escherichia coli, Staphylococcus aureus, Pseudomonas aeruginosa, and Pasteurella multocida. Each test organism's concentration was estimated to be 100,000 cfu to 1,000,000 cfu per milliliter.
(§4) Materials used included: 1. Baird Parker Agar for Staphylococcus aureus; 2. Standard Methods Agar for E. coli and Pseudomonas aeruginosa; 3. Tryptic Soy Agar for Pasteurella multocida; 4. 100 ppm chlorinated water to serve as a positive control; 5. Distilled water to serve as the negative control; 6. Quebec Colony Counter; 7. Incubator at 32.0 C; 8. Petri plates (85 mm diameter); 9. Vernier calibrators; 10.

[3] = test system: Pasteurella multocida; test: as above; assay type: cell-based; conditions: Tryptic Soy Agar, 48 hours at 32.0° C, rubber with 1000 ppm zinc pyrithione, Sodium Hypochlorite @ 100 ppm on paper disc
From the text: as §1, §2, §3, §4

[4] = test system: Pseudomonas aeruginosa; test: as above; assay type: cell-based; conditions: Standard Methods Agar, 48 hours at 32.0° C, rubber with 1000 ppm zinc pyrithione, Sodium Hypochlorite @ 100 ppm on paper disc
From the text: as §1, §2, §3, §4

[5] = test system: Staphylococcus aureus; test: as above; assay type: cell-based; conditions: Baird Parker Agar, 48 hours at 32.0° C, rubber with 1000 ppm zinc pyrithione, Sodium Hypochlorite @ 100 ppm on paper disc
From the text: as §1, §2, §3, §4

[6] = test system: Pseudomonas aeruginosa; conditions: it has been reported; cited from earlier work

Structure (SMILES): [O-][n+]1ccccc1[S-].[O-][n+]1ccccc1[S-].[Zn+2] [zinc pyrithione, zinc 2-pyridinethiol-n-oxide]
- toxicity compared with sodium hypochlorite (similar kill zones) [1]: equal to the potency of sodium hypochlorite at 100 ppm

Structure (SMILES): OCl [Sodium Hypochlorite]
- zone of inhibition or kill zone [2]: 1.6 cm and 1.4 cm
- zone of inhibition or kill zone [3]: 3.5 cm and 3.2 cm
- kill zone [4]: 3.1 cm and 3.0 cm
- zone of inhibition or kill zone [5]: 3.0 cm and 2.5 cm

Structure (SMILES): Oc1cc(Cl)ccc1Oc1ccc(Cl)cc1Cl [triclosan]
- efficacy against Pseudomonas aeruginosa [6]: little or no efficacy
